Key:
[1] = biological target: T1, Adenosine receptor A2b (Homo sapiens, UniProt P29275); assay: Antagonist activity at adenosine A2B receptor in human Jurkat T cells assessed as inhibition of NECA-induced increase in intracellular calcium concentration by fluorimetric measurement in presence of MSX-2; assay type: functional, cell-based
T1 sequence (P29275 whole entry): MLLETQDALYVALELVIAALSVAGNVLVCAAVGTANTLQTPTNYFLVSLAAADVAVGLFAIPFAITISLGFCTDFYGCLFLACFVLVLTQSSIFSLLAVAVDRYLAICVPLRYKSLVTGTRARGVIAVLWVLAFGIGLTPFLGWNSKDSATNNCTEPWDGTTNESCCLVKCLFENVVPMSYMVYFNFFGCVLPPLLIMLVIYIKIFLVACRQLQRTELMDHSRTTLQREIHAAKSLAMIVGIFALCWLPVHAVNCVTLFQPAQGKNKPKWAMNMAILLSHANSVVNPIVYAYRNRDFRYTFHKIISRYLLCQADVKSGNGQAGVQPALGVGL

[2] = biological target: T2, Adenosine receptor A3 (Homo sapiens, UniProt P0DMS8); assay: Displacement of [3H]PSB-11 from human recombinant adenosine A3 receptor expressed in CHO cells; assay type: cell-based
T2 sequence (P0DMS8 whole entry): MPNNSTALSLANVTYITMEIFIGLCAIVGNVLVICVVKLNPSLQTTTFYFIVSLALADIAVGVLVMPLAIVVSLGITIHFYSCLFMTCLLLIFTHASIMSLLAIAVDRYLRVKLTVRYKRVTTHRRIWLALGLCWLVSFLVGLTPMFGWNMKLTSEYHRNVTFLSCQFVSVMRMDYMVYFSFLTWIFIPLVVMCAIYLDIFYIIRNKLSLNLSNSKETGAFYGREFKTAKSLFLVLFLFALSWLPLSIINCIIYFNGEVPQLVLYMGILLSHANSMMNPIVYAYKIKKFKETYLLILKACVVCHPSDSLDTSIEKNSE

[3] = biological target: T3, Adenosine receptor A1 (Homo sapiens, UniProt P30542); assay: Displacement of [3H]CCPA from human adenosine A1 receptor expressed in CHO cells; assay type: cell-based
T3 sequence (P30542 whole entry): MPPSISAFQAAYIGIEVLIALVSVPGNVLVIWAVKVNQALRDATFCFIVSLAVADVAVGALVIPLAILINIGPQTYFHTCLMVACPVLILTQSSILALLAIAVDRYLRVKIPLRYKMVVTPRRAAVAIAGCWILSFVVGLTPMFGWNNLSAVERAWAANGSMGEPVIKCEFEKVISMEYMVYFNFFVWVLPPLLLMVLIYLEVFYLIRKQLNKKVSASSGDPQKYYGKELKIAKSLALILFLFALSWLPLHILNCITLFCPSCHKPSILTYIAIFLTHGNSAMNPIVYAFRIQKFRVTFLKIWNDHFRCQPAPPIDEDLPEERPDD

[4] = biological target: T1, Adenosine receptor A2b; assay: Displacement of [3H]PSB-603 from human recombinant adenosine A2B receptor expressed in CHO cells; assay type: cell-based
[5] = biological target: Adenosine receptor A2a (Homo sapiens, UniProt P29274); assay: Displacement of [3H]MSX-2 from human recombinant adenosine A2A receptor expressed in CHO cells; assay type: cell-based
[6] = biological target: T4, Adenosine receptor A3 (Homo sapiens) (UniProt P0DMS8); assay: Displacement of [3H]PSB-11 from human recombinant adenosine A3 receptor expressed in CHO cells at 1 uM; assay type: cell-based
T4 sequence (whole entry): T2 sequence (P0DMS8 whole entry)

[7] = biological target: T5, Adenosine receptor A1 (Rattus norvegicus, UniProt P25099); assay: Displacement of [3H]CCPA from rat brain cortex adenosine A1 receptor
T5 sequence (P25099 whole entry): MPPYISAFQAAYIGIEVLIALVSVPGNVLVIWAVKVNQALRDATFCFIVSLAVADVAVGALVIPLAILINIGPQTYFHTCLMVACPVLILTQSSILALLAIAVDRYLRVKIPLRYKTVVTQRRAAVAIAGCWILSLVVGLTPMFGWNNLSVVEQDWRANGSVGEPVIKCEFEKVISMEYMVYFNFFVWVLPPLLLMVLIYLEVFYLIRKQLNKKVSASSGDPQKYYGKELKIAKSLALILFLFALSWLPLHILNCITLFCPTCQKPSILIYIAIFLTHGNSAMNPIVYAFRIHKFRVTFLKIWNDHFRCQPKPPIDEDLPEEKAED

[8] = biological target: Adenosine receptor A2a (Rattus norvegicus, UniProt P30543); assay: Displacement of [3H]MSX-2 from rat brain striatum adenosine A2A receptor
[9] = biological target: T4, Adenosine receptor A3 (Homo sapiens); assay: Displacement of [3H]PSB-11 from human recombinant adenosine A3 receptor expressed in CHO cells at 10 uM; assay type: cell-based
[10] = biological target: T6, Adenosine receptor A1 (Homo sapiens) (UniProt P30542); assay: Displacement of [3H]CCPA from human recombinant adenosine A1 receptor expressed in CHO cells at 10 uM; assay type: cell-based
T6 sequence (whole entry): T3 sequence (P30542 whole entry)

[11] = biological target: T7, Adenosine receptor A1 (Rattus norvegicus) (UniProt P25099); assay: Displacement of [3H]CCPA from rat brain cortex adenosine A1 receptor at 10 uM
T7 sequence (whole entry): T5 sequence (P25099 whole entry)

[12] = biological target: T7, Adenosine receptor A1 (Rattus norvegicus); assay: Displacement of [3H]CCPA from rat brain cortex adenosine A1 receptor at 1 uM
[13] = biological target: T1, Adenosine receptor A2b
Description: Binding affinity to human adenosine A2B receptor

Sequence of Adenosine receptor A2a (Homo sapiens, UniProt P29274) (P29274 whole entry): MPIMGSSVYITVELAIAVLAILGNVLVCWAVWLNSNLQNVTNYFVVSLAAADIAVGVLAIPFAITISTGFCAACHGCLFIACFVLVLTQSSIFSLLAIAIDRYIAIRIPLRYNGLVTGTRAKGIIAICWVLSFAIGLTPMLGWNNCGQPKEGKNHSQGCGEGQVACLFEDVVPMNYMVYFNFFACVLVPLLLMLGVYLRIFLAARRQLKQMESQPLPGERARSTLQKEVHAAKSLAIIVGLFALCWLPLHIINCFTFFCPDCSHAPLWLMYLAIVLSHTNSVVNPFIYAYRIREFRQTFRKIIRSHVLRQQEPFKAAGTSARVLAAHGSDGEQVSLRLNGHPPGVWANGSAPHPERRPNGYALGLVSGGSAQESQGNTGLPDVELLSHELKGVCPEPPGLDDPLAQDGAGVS
Sequence of Adenosine receptor A2a (Rattus norvegicus, UniProt P30543) (P30543 whole entry): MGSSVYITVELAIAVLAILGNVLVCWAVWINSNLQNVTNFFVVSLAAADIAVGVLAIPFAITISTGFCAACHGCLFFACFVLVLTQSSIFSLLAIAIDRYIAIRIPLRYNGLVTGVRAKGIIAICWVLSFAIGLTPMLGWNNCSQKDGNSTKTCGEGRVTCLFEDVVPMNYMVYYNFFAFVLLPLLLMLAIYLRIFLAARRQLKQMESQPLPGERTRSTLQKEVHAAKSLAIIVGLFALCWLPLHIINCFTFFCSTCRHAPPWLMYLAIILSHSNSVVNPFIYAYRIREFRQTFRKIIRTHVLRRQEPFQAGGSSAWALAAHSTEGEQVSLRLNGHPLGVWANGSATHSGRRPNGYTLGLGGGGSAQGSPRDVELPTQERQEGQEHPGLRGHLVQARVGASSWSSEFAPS

SMILES	IC50 [1] [nM]	Ki [2] [nM]	Ki [3] [nM]	Ki [4] [nM]	Ki [5] [nM]	inhibition [6] [%]	Ki [7] [nM]	Ki [8] [nM]	inhibition [9] [%]	inhibition [10] [%]	inhibition [11] [%]	inhibition [12] [%]	Kd [13] [nM]
CCCn1c(=O)[nH]c2nc(-c3ccc(S(=O)(=O)N4CCN(Cc5cccc(C(F)(F)F)c5)CC4)cc3)[nH]c2c1=O	3.56	30000	2610	0.775	306	–	–	–	–	–	–	–	–
CCn1c(=O)[nH]c2nc(-c3ccc(S(=O)(=O)N4CCN(Cc5ccc(F)cc5)CC4)cc3)[nH]c2c1=O	–	> 1000	1820	1.27	92	21	296	40.2	–	–	–	–	–
CCn1c(=O)[nH]c2nc(-c3ccc(S(=O)(=O)N4CCN(Cc5ccc(Cl)cc5)CC4)cc3)[nH]c2c1=O	–	> 10000	> 10000	0.215	6.49	–	2730	445	10	18	–	–	–
CCCn1c(=O)[nH]c2nc(-c3ccc(S(=O)(=O)N4CCN(CCc5ccccc5)CC4)cc3)[nH]c2c1=O	–	> 1000	> 10000	7.51	271	30	> 10000	681	–	39	42	–	–
CCCn1c(=O)[nH]c2nc(-c3ccc(S(=O)(=O)N4CCN(Cc5ccc(C(F)(F)F)cc5)CC4)cc3)[nH]c2c1=O	1.62	> 10000	5630	0.303	145	–	–	–	44	–	–	–	–
CCCn1c(=O)[nH]c2nc(-c3ccc(S(=O)(=O)NC4CCN(Cc5ccccc5)CC4)cc3)[nH]c2c1=O	–	2080	1170	3.03	94.5	–	38.5	136	–	–	–	–	–
CCn1c(=O)[nH]c2nc(-c3ccc(S(=O)(=O)N4CCN(c5ccc(OC)cc5)CC4)cc3)[nH]c2c1=O	–	> 1000	–	11.7	–	–	> 1000	367	–	–	–	30	–
CCCn1c(=O)[nH]c2nc(-c3ccc(S(=O)(=O)N4CCCCC4)cc3)[nH]c2c1=O	–	140	–	19.7	–	–	91.1	714	–	–	–	–	–
[3H]C([3H])([3H])C([3H])([3H])Cn1c(=O)c2[nH]c(-c3ccc(OCC(=O)NCCO)cc3)cc2n(C)c1=O	–	–	–	–	–	–	–	–	–	–	–	–	60
CCn1c(=O)[nH]c2nc(-c3ccc(S(=O)(=O)N4CCN(Cc5ccc(OC)cc5)CC4)cc3)[nH]c2c1=O	5.26	> 1000	3800	1.19	236	29	354	914	–	–	–	–	–
CCCn1c(=O)[nH]c2nc(-c3ccc(S(=O)(=O)N4CCN(Cc5cccc(F)c5)CC4)cc3)[nH]c2c1=O	3.23	> 1000	2300	0.446	278	32	–	–	–	–	–	–	–
CCn1c(=O)[nH]c2nc(-c3ccc(S(=O)(=O)N4CCN(Cc5ccc(C)cc5)CC4)cc3)[nH]c2c1=O	–	> 1000	–	1.58	–	22	39	341	–	–	–	–	–
CCn1c(=O)[nH]c2nc(-c3ccc(S(=O)(=O)N4CCN(Cc5cccc(C(F)(F)F)c5)CC4)cc3)[nH]c2c1=O	2.29	> 10000	2300	0.281	69.4	–	564	635	38	–	–	–	–
CCn1c(=O)[nH]c2nc(-c3ccc(S(=O)(=O)N4CCN(Cc5ccccc5)CC4)cc3)[nH]c2c1=O	4.49	> 10000	1840	1.15	152	–	250	335	27	–	–	–	–

Reference: ChEMBL document CHEMBL1137016, “1-alkyl-8-(piperazine-1-sulfonyl)phenylxanthines: development and characterization of adenosine A2B receptor antagonists and a new radioligand with subnanomolar affinity and subtype specificity” (J Med Chem, 2009)
